# According to patent US8232273B2, “Heterocyclic compounds and methods of use” (Genentech, Inc., priority 2008, dated 2012):
# What was measured:
# Bcl-xL (GST-Bcl-xL) [1] = molecular target: T1, Bcl-xL (GST-Bcl-xL) (Homo sapiens, UniProt Q07817); assay: TR-FRET binding assay, competition with F-Bak for the Bcl-xL binding site; details: values listed in the order of Table 1, read-out: TR-FRET assay results (Ki), Bcl-xL
# Bcl-2 (GST-Bcl-2) = molecular target: T2, Bcl-2 (GST-Bcl-2) (Homo sapiens, UniProt P10415); assay: TR-FRET binding assay, competition with F-Bak for the Bcl-2 binding site; details: Bcl-2, for comparison (selectivity)
# T2 construct: made in house
# Method: For each assay plate, a probe/antibody and protein/antibody/probe mixture were included as a negative and a positive control, respectively. Fluorescence was measured on the Envision (Perkin Elmer) using a 340/35 nm excitation filter and 520/525 (F-Bak) and 495/510 nm (Tb-labeled anti-his antibody) emission filters. Dissociation constants (Ki) were determined using Wang's equation (see, Wang, Z. X. An exact mathematical expression for describing competitive binding of two different ligands to a protein molecule. FEBS Lett. 1995 360:111-114). The TR-FRET assay can be performed in the presence of varying concentrations of human serum (HS) or fetal bovine serum (FBS). For comparison, the measurement of the competition of compounds of the invention for other Bcl-2 family protein binding sites (e.g., Bcl-2, Mcl-1) using the TR-FRET binding assay was accomplish by substituting GST-Bcl-xL in the TR-FRET assay with other GST-labeled protein, e.g., GST-Bcl-2, GST-Mcl-1, prepared in-house.
# platelets = assay: Cell viability assay for platelets (platelet rich plasma, CellTiter-Glo); assay type: cell-based; details: approximately 4 hours at 37 C
# Method: Platelet rich plasma (PRP) was incubated with a compound of the invention for approximately 4 hours at 37° C. After incubation, platelets were equilibrated to room temperature for 20 minutes and then and equal volume of CELL TITER-GLO™ reagent (Promega Corporation) was added. Samples were mixed for two minutes and then allowed to equilibrate for an additional 10 minutes at room temperature. The luminescence generated from the samples was quantitated using a LJL Analyst plate reader. Data analysis was performed using GraphPad Prism 4.0.
# Bcl-xL (GST-Bcl-xL) [2] = molecular target: T1, Bcl-xL (GST-Bcl-xL); assay: AlphaScreen Bcl-xL binding assay, competition with biotinylated Bim peptide; set-up: made in house; details: values listed in the order of Table 1; read-out: Alphascreen results (IC50) against the Bcl-xL protein
# Procedure, shortened: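 Acceptor beads with GST-Bcl-xL were combined with donor beads carrying biotinylated Bim peptide after each bead mix was preincubated 30 min at room temperature. Compounds in DMSO, 2-fold serially diluted, were incubated 30 min at room temperature before donor addition, with duplicate plates. Percent inhibition was taken against no-protein and DMSO controls, and IC50 was calculated.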
# T1 sequence (Q07817 whole entry, species assumed): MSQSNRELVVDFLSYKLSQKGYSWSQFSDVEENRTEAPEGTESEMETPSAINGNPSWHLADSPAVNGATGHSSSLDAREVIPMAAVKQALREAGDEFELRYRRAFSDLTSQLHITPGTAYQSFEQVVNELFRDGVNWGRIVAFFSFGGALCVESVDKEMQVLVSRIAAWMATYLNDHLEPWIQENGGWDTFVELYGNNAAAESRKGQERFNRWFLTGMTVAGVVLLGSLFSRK
# T2 sequence (P10415 whole entry, species assumed): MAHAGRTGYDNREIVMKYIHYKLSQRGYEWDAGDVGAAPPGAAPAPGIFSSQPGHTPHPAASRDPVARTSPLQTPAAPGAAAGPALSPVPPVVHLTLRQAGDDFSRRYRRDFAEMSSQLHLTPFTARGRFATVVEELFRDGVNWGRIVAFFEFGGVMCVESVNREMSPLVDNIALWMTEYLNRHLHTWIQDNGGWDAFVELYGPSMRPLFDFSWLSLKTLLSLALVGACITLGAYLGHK
Compound,Ki (Bcl-xL (GST-Bcl-xL) [1]) [nM],Ki (Bcl-2 (GST-Bcl-2)) [nM],EC50 (platelets) [nM],IC50 (Bcl-xL (GST-Bcl-xL) [2]) [nM]
"CC(C)n1cnc2c(-c3ccc(OCCCc4sc(N5CCc6cccc(C(=O)Nc7nc8ccccc8s7)c6C5)nc4C(=O)O)cc3)ncnc21 [Example 52, 2-(8-(benzo[d]thiazol-2-ylcarbamoyl)-3,4-dihydroisoquinolin-2(1H)-yl)-5-(3-(4-(9-isopropyl-9H-purin-6-yl)phenoxy)propyl)thiazole-4-carboxylic acid]",0.05,130,,
"CN(C)CCCNc1ncnc2c1cnn2-c1ccc(OCCCc2sc(N3CCc4cccc(C(=O)Nc5nc6ccccc6s5)c4C3)nc2C(=O)O)cc1 [Example 54, 2-(8-(benzo[d]thiazol-2-ylcarbamoyl)-3,4-dihydroisoquinolin-2(1H)-yl)-5-(3-(4-(4-(3-(dimethylamino)propylamino)-1H-pyrazolo[3,4-d]pyrimidin-1-yl)phenoxy)propyl)thiazole-4-carboxylic acid]",0.05,,132,
"O=C(Nc1nc2ccccc2s1)c1cccc2c1CN(c1nc(C(=O)O)c(CCNS(=O)(=O)c3cccc([N+](=O)[O-])c3)s1)CC2 [Example 70, 2-[8-(Benzothiazol-2-ylcarbamoyl)-3,4-dihydro-1H-isoquinolin-2-yl]-5-[2-(3-nitro-benzenesulfonylamino)-ethyl]thiazole-4-carboxylic acid]",40,500,,260
"O=C(Nc1nc2ccccc2s1)c1cccc2c1CN(c1nc(C(=O)O)c(CCOc3ccccc3)s1)CC2 [Example 76, 2-(8-(benzo[d]thiazol-2-ylcarbamoyl)-3,4-dihydroisoquinolin-2(1H)-yl)-5-(2-phenoxyethyl)thiazole-4-carboxylic acid]",,350,,
"O=C(Nc1nc2ccccc2s1)c1cccc2c1CN(c1nc(C(=O)O)c(CCCOc3ccc(-c4csc5c(NCCCN6CCCC6)ncnc45)cc3)s1)CC2 [Example 78, 2-[8-(Benzothiazol-2-ylcarbamoyl)-3,4-dihydro-1H-isoquinolin-2-yl]-5-(3-{4-[4-(3-pyrrolidin-1-yl-propylamino)-thieno[3,2-d]pyrimidin-7-yl]-phenoxy}-propyl)-thiazole-4-carboxylic acid]",0.05,,3,
"CN1CCN(c2ncnc3c(-c4ccc(OCCCc5sc(N6CCc7cccc(C(=O)Nc8nc9ccccc9s8)c7C6)nc5C(=O)O)cc4)csc23)CC1 [Example 79, 2-[8-(Benzothiazol-2-ylcarbamoyl)-3,4-dihydro-1H-isoquinolin-2-yl]-5-(3-{4-[4-(4-methyl-piperazin-1-yl)-thieno[3,2-d]pyrimidin-7]-phenoxy}-propyl)-thiazole-4-carboxylic acid]",0.1,,3,
"CN(C)CC#Cc1ccc(OCCCc2sc(N3CCc4cccc(C(=O)Nc5nc6ccccc6s5)c4C3)nc2C(=O)O)c(F)c1 [Example 116, 2-(8-(benzo[d]thiazol-2-ylcarbamoyl)-3,4-dihydroisoquinolin-2(1H)-yl)-5-(3-(4-(3-(dimethylamino)prop-1-ynyl)-2-fluorophenoxy)propyl)thiazole-4-carboxylic acid]",0.004,,,0.2
"CN(C)CC#Cc1ccc(OCCCc2sc(N3CCc4cccc(C(=O)Nc5nc6ccccc6s5)c4C3)nc2C(=O)O)cc1F [Example 117, 2-(8-(benzo[d]thiazol-2-ylcarbamoyl)-3,4-dihydroisoquinolin-2(1H)-yl)-5-(3-(4-(3-(dimethylamino)prop-1-ynyl)-3-fluorophenoxy)propyl)thiazole-4-carboxylic acid]",3,,,17
"CN(C)CC#Cc1cc(F)c(OCCCc2sc(N3CCc4cccc(C(=O)Nc5nc6ccccc6s5)c4C3)nc2C(=O)O)cc1F [Example 118, 2-(8-(benzo[d]thiazol-2-ylcarbamoyl)-3,4-dihydroisoquinolin-2(1H)-yl)-5-(3-(4-(3-(dimethylamino)prop-1-ynyl)-2,5-difluorophenoxy)propyl)thiazole-4-carboxylic acid]",0.01,,,0.3
